US20120034613A1, “Apparatus and Method for Testing Relationships Between Gene Expression and Physical Appearance of Skin” (NSE Products, Inc., priority 2010, published 2012)

Tested on: EpidermFT™ Skin Model (EFT-400) full thickness skin cultures
Assay: Affymetrix GeneChip HG U133 Plus 2.0 microarray global gene expression, agent-exposed vs untreated skin cultures
Type: cell-based, human
Conditions: 0.5% vs untreated, 24 hr; down

For `OCc1ccccc1O[C@@H]1O[C@H](CO)[C@@H](O)[C@H](O)[C@H]1O` [Salicin, 2-(Hydroxymethyl)phenyl β-D-glucospyranoside], the “Fold change ABHD12 (228124_at)” value was 3.821, the “Fold change ACAD8 (221669_s_at)” value was 3.404 and the “Fold change ACOX1 (209600_s_at)” value was 3.361. The “Fold change ACOX1 (213501_at)” value was 3.854, the “Fold change ACOX1 (227962_at)” value was 3.737 and the “Fold change ADAP2 (222876_s_at)” value was 3.579. For the same molecule, the “Fold change AGPAT9 (224480_s_at)” value was 3.106, the “Fold change AHNAK2 (1558378_a_at)” value was 3.138 and the “Fold change AKTIP (223894_s_at)” value was 3.08. The “Fold change ALDH3A2 (210544_s_at)” value was 3.633, the “Fold change ALDH3B2 (204941_s_at)” value was 3.429 and the “Fold change ALOX15B (206714_at)” value was 3.512. For the same molecule, the “Fold change ANKFN1 (1553211_at)” value was 3.62, the “Fold change ANKRD35 (231118_at)” value was 3.392 and the “Fold change ANKRD57 (219496_at)” value was 3.699. The “Fold change APOBEC3B (206632_s_at)” value was 3.0369, the “Fold change AQP3 (39248_at)” value was 3.579 and the “Fold change ARHGEF5 (204765_at)” value was 3.689. For the same molecule, the “Fold change ARL4A (205020_s_at)” value was 3.913, the “Fold change ARL5A (218150_at)” value was 3.293 and the “Fold change ARL5A (226617_at)” value was 3.1. The “Fold change ASPHD2 (227015_at)” value was 3.321, the “Fold change BCL11A (210347_s_at)” value was 3.112 and the “Fold change BEND5 (219670_at)” value was 3.381. The “Fold change BEX2 (224367_at)” value was 3.212, the “Fold change BTBD16 (1552566_at)” value was 3.232 and the “Fold change C1orf106 (219010_at)” value was 3.744. For the same molecule, the “Fold change C1orf161 (1553333_at)” value was 3.474, the “Fold change C2orf54 (220149_at)” value was 3.333 and the “Fold change C4orf32 (227856_at)” value was 3.328. The “Fold change C10orf57 /// C10orf58 (224435_at)” value was 3.829, the “Fold change C10orf99 (227735_s_at)” value was 3.719 and the “Fold change C19orf33 (223631_s_at)” value was 3.241. For the same molecule, the “Fold change C20orf74 (232500_at)” value was 3.366, the “Fold change CA2 (209301_at)” value was 3.433 and the “Fold change CAMK1D (235626_at)” value was 3.726. For the same molecule, the “Fold change CARD10 (210026_s_at)” value was 3.475, the “Fold change CCNB1 (228729_at)” value was 3.349 and the “Fold change CD9 (201005_at)” value was 3.444. The “Fold change CDH3 (203256_at)” value was 3.506, the “Fold change CDKN2B (236313_at)” value was 3.737 and the “Fold change CDS1 (226187_at)” value was 3.08. The “Fold change CGN (223232_s_at)” value was 3.873, the “Fold change CHAC2 (235117_at)” value was 3.55 and the “Fold change CHD7 (218829_s_at)” value was 3.089. For the same molecule, the “Fold change CLDN4 (201428_at)” value was 3.454, the “Fold change CLTB (205172_x_at)” value was 3.663 and the “Fold change CLTB (211043_s_at)” value was 3.446. The “Fold change COBLL1 (215393_s_at)” value was 3.301, the “Fold change COL17A1 (204636_at)” value was 3.576 and the “Fold change CPEB3 (205773_at)” value was 3.876. For the same molecule, the “Fold change CTA-221G9.4 /// LOC100131004 (225525_at)” value was 3.401, the “Fold change CYP2R1 (227109_at)” value was 3.716 and the “Fold change CYP27C1 (1568868_at)” value was 3.64. The “Fold change D4S234E (209569_x_at)” value was 3.313, the “Fold change D4S234E (209570_s_at)” value was 3.871 and the “Fold change DAAM1 (216060_s_at)” value was 3.84. The “Fold change DAAM1 (226666_at)” value was 3.519, the “Fold change DAPL1 (229290_at)” value was 3.089 and the “Fold change DGAT2 (224327_s_at)” value was 3.427. The “Fold change DGAT2 (226064_s_at)” value was 3.883, the “Fold change DHRS1 (213279_at)” value was 3.907 and the “Fold change DHRS11 (218756_s_at)” value was 3.13. For the same molecule, the “Fold change DLX3 (231778_at)” value was 3.089, the “Fold change DOCK8 (225502_at)” value was 3.608 and the “Fold change DUOX1 (219597_s_at)” value was 3.516. The “Fold change DUOXA1 (1554648_a_at)” value was 3.865, the “Fold change EBP (213787_s_at)” value was 3.0355 and the “Fold change EFNA5 (214036_at)” value was 3.139. For the same molecule, the “Fold change EGR1 (201693_s_at)” value was 3.681, the “Fold change EGR2 (205249_at)” value was 3.497 and the “Fold change ELOVL6 (204256_at)” value was 3.121. The “Fold change ELOVL6 (210868_s_at)” value was 3.441, the “Fold change ENC1 (201340_s_at)” value was 3.246 and the “Fold change EPB41L4A (228256_s_at)” value was 3.298. The “Fold change EPHA4 (229374_at)” value was 3.101, the “Fold change EPN3 (223895_s_at)” value was 3.929 and the “Fold change F3 (204363_at)” value was 3.192. For the same molecule, the “Fold change F11R (222354_at)” value was 3.541, the “Fold change FA2H (219429_at)” value was 3.37 and the “Fold change FABP7 (205029_s_at)” value was 3.263. The “Fold change FABP7 (205030_at)” value was 3.804, the “Fold change FAM63A (221856_s_at)” value was 3.1 and the “Fold change FAM72A /// FAM72B /// GCUD2 (225834_at)” value was 3.211. For the same molecule, the “Fold change FAM83B (1563900_at)” value was 3.497, the “Fold change FAM83D (225687_at)” value was 3.895 and the “Fold change FAM83H (226129_at)” value was 3.739. For the same molecule, the “Fold change FAM84B (225864_at)” value was 3.566, the “Fold change FAM169A (235048_at)” value was 3.759 and the “Fold change FBXO3 (218432_at)” value was 3.446. The “Fold change FCHSD1 (226698_at)” value was 3.141, the “Fold change FERMT1 (218796_at)” value was 3.784 and the “Fold change FGFBP1 (205014_at)” value was 3.406. The “Fold change FIGN (239710_at)” value was 3.472, the “Fold change FLNB (208614_s_at)” value was 3.765 and the “Fold change FLVCR2 (219316_s_at)” value was 3.532. The “Fold change FLVCR2 (222866_s_at)” value was 3.373, the “Fold change FMO5 (205776_at)” value was 3.223 and the “Fold change FOXE1 (206912_at)” value was 3.121. The “Fold change FXYD3 (202489_s_at)” value was 3.827, the “Fold change GAB1 (229114_at)” value was 3.301 and the “Fold change GFOD1 (219821_s_at)” value was 3.679. The “Fold change GGT6 (236225_at)” value was 3.426, the “Fold change GJB6 (231771_at)” value was 3.289 and the “Fold change GM2A (35820_at)” value was 3.763. The “Fold change GM2A (212737_at)” value was 3.6714, the “Fold change GM2A (235678_at)” value was 3.427 and the “Fold change GPR37 (209631_s_at)” value was 3.265. For the same molecule, the “Fold change GPR126 (213094_at)” value was 3.256, the “Fold change GPT2 (224839_s_at)” value was 3.555 and the “Fold change GRHL1 (222830_at)” value was 3.044. For the same molecule, the “Fold change GSTA4 (235405_at)” value was 3.3 and the “Fold change H19 (224646_x_at)” value was 3.532.
